According to US8921328B2, “E-selectin antagonists” (GlycoMimetics, Inc., priority 2010, dated 2014):
pKd: −log10 of the molar value.

Biological target: T1, E-selectin/IgG construct (Homo sapiens, UniProt P16581)
T1 construct: fused on or other part: IgG Fc part (human, since it is captured by goat anti-human Fc antibody), fused on as a capture handle
T1 sequence (P16581 22-175 limits assumed): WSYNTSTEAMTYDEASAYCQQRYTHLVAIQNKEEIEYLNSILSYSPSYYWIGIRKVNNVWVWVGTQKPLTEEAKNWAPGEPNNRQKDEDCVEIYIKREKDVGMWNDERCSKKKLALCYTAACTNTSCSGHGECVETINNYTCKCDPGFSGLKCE
Assay: BIAcore surface plasmon resonance (SPR)-based assay, serial dilutions of the ligand (absolute KD)
Details: twofold serial dilutions, 600 s association/600 s dissociation, HBS-P + 20 mm calcium + DMSO 5% v/v, read-out: KD values (absolute binding affinities)
Description: The biological evaluation of the E-selectin antagonists was performed by surface plasmon resonance (SPR). For this purpose, an E-selectin/IgG construct was captured onto a BIAcore chip surface bearing covalently linked goat anti-human Fc specific antibody (Biacore Life Sciences, Uppsala, Sweden).
Evaluation of E-Selectin Antagonists with Surface Plasmon Resonance (SPR)-Based Assay
Ten twofold serial dilutions of the ligand were non-randomly injected. The E-selectin antagonists were diluted in running buffer (HBS-P supplemented with […] calcium and DMSO 5% v/v). Antagonist dilutions were injected with a 600 s association time and 600 s dissociation time at a flow rate of 20 μL/min over the reference and the active flow cell. […] In addition, to prevent the presence of residual traces of compound, a blank injection was performed between each injection of ligand dilution. DMSO calibration and double referencing were applied to correct bulk effects and other systematic artifacts (subtraction of reference surface and blank injection).

## C[C@@H]1O[C@@H](O[C@@H]2[C@@H](C)C[C@@H](C(=O)NCCCc3cn(CCCn4ccc5cc([N+](=O)[O-])ccc54)nn3)C[C@H]2O[C@@H]2O[C@H](CO)[C@H](O)[C@H](O[C@@H](CC3CCCCC3)C(=O)O)[C@H]2OC(=O)c2ccccc2)[C@@H](O)[C@H](O)[C@@H]1O [Product 66, (1R,3R,4R,5S)-3-[2-O-Benzoyl-3-O-((1S)-1-carboxy-2-cyclohexyl-ethyl)-(β-D-galactopyranosyl)oxy]-4-[(α-L-fucopyranosyl)oxy]-5-methyl-N-(3-{1-[3-(5-nitro-1H-indol-1-yl)propyl]-1H-1,2,3-triazol-4-yl}propyl)cyclohexanecarboxamide]
  pKd: 7.52
